Data taken from patent US4843075A, “Benzothiopyrano[4,3-c]pyridazine compounds, methods for preparing said compounds and uses of said compounds” (Yoshitomi Pharmaceutical Industries, Ltd., priority 1986, dated 1989).

Biological target: benzodiazepine receptor
Experiment: Displacement ability for benzodiazepine receptor (displacement of tritiated diazepam)
Details: displacement of tritiated diazepam (2 nM), rat cerebral cortex synaptosomal fraction, pH 7.4, 0° C., 20 minutes; read-out: binding for benzodiazepine Ki
Protocol: The experiment was performed according to the methods described in European Journal of Pharmacology, vol. 51, P. 129 (1978) and Life Science, vol. 20, p. 1201 (1977).
In brief, a crude synaptosomal fraction was isolated from the cerebral cortex of 9 to 10 week-old male Wistar rats and suspended in 50 mM of Tris-hydrochloric acid buffer solution (pH 7.4) containing 120 mM of sodium chloride and 5 mM of potassium chloride.
To the synaptosomal suspension as prepared above were added various concentrations of test compounds and tritiated diazepam (final concentration:2 nM), and the mixture was incubated at 0° C. for 20 minutes. Then the suspension was filtered through Whatman GF/B glass fiber filter. After the filter was washed with the foregoing buffer solution, the radioactivity left on the filter was measured by a liquid scintillation spectrometry.
Specific binding was determined by subtracting binding in the presence of 10^-6 M unlabelled diazepam from total binding.
According to the above experimental method, the affinity of the compounds of the present invention for benzodiazepine receptor is evaluated as an ability to displace tritiated diazepam from the binding site, and is represented as Ki value.

Compound | Ki
O=C1CC2CSc3ccccc3C2=NN1c1ccc(Cl)cc1 (centres unmarked) [Example 1, 2-(4-chlorophenyl)-2,3,4,4a-tetrahydro-5H-(1)benzothiopyrano[4,3-c]pyridazin-3-one] | 40 nM
Cc1ccc(N2N=C3c4ccccc4SCC3CC2=O)cc1 (centres unmarked) [Example 9, 2-(4-methylphenyl)-2,3,4,4a-tetrahydro-5H-(1)benzothiopyrano[4,3-c]pyridazin-3-one] | 12 nM
COc1ccc(N2N=C3c4ccccc4SCC3CC2=O)cc1 (centres unmarked) [Example 10, 2-(4-methoxyphenyl)-2,3,4,4a-tetrahydro-5H-(1)benzothiopyrano[4,3-c]pyridazin-3-one] | 13 nM
O=C1CC2CSc3ccccc3C2=NN1c1ccc(Br)cc1 (centres unmarked) [Example 13, 2-(4-bromophenyl)-2,3,4,4a-tetrahydro-5H-(1)benzothiopyrano[4,3-c]pyridazin-3-one] | 45 nM

Test system: not listed separately
Experiment: Anti-bicuculline effect (tonic convulsion in mice)
Format: in vivo, male ddY-strain mice
Details: Mus musculus, oral, (+)bicuculline 0.6 mg/kg i.v. 1 hour after test compound, tonic convulsion within 5 minutes
Protocol: The experiment of anti-bicuculline effect was performed according to the method described in Life Science, vol. 21, p. 1779 (1977).
In brief, groups of 7-14 male ddY-strain mice weighing 20-28 g were used. (+)Bicuculline (0.6 mg/kg) was intraveneously administered 1 hour after the oral adminstration of test compound, and the ED50, 50% effective dose, was determined by observing the existence of tonic convulsion within 5 minutes.

Compound | ED50
O=C1CC2CSc3ccccc3C2=NN1c1ccc(Cl)cc1 (centres unmarked) [Example 1, 2-(4-chlorophenyl)-2,3,4,4a-tetrahydro-5H-(1)benzothiopyrano[4,3-c]pyridazin-3-one] | 12.4 mg/kg
O=C1CC2C[S+]([O-])c3ccccc3C2=NN1c1ccc(Cl)cc1 (centres unmarked) [Example 3, 2-(4-chlorophenyl)-2,3,4,4a-tetrahydro-5H-(1)benzothiopyrano[4,3-c]pyridazin-3-one 6-oxide] | 4.1 mg/kg
O=C1CC2C[S+]([O-])c3ccc(F)cc3C2=NN1c1ccc(Cl)cc1 (centres unmarked) [Example 19, 2-(4-chlorophenyl)-9-fluoro-2,3,4,4a-tetrahydro-5H-(1)benzothiopyrano[4,3-c]pyridazin-3-one 6-oxide] | 10.6 mg/kg
Cc1ccc2c(c1)C1=NN(c3ccc(Cl)cc3)C(=O)CC1C[S+]2[O-] (centres unmarked) [Example 23, 2-(4-chlorophenyl)-9-methyl-2,3,4,4a-tetrahydro-5H-(1)benzothiopyrano[4,3-c]pyridazin-3-one 6-oxide] | 40.6 mg/kg
